Where two headings read alike, the source gives them in different places.
Assays:
[1] = target: T1, BTK protein (Mus musculus, UniProt P35991); test: Detection of BTK protein degradation in spleen of mice; format: in vivo; settings: po, female ICR mice, 3 consecutive days of intragastric administration, read-out: DD50 value of compounds on BTK protein degradation in spleen of mice
T1 construct: from tissue; host or cells: spleen of female ICR mice
Description: Female ICR mice, 6-8 weeks old, were purchased from BEIJING VITAL RIVER LABORATORY ANIMAL TECHNOLOGY CO., LTD, and the experiment was started after 3 days of adaptation. After 3 consecutive days of intragastric administration of different doses of the compound, the spleen of mice was taken, the spleen cells were collected, and RIPA lysis buffer (Beyotime, Cat. P0013B) was added. The cells were lysed on ice for 15 minutes, and centrifuged at 12000 rpm at 4° C. for 10 minutes. The protein sample of the supernatant was collected, and the protein was quantified by using the BCA kit (Beyotime, Cat. P0009), and then the protein was diluted to 0.25 mg/mL. The expressions of BTK (CST, Cat. 8547S) and the internal reference β-actin (CST, Cat. 3700S) were detected using a fully automated western blot quantitative analyzer (Proteinsimple). The expression level of BTK relative to the internal reference was calculated using Compass software, and the DD50 value was calculated using Origin9.2 software according to formula (4). Specifically, the BTKadministration denoted the expression level of BTK in administration groups at different doses, and the BTKvehicle denoted the expression level of BTK in the vehicle control group. BTK %=BTKadministration/BTKvehicle×100% formula (4)

[2] = target: T2, BTK (Homo sapiens, UniProt Q06187); test: Detection of BTK degradation in Mino cells (automated western blot); format: cell-based; settings: 48 hours
T2 construct: endogenous in cells; host or cells: Mino human mantle cell lymphoma cells (ATCC)
T2 sequence (Q06187 whole entry): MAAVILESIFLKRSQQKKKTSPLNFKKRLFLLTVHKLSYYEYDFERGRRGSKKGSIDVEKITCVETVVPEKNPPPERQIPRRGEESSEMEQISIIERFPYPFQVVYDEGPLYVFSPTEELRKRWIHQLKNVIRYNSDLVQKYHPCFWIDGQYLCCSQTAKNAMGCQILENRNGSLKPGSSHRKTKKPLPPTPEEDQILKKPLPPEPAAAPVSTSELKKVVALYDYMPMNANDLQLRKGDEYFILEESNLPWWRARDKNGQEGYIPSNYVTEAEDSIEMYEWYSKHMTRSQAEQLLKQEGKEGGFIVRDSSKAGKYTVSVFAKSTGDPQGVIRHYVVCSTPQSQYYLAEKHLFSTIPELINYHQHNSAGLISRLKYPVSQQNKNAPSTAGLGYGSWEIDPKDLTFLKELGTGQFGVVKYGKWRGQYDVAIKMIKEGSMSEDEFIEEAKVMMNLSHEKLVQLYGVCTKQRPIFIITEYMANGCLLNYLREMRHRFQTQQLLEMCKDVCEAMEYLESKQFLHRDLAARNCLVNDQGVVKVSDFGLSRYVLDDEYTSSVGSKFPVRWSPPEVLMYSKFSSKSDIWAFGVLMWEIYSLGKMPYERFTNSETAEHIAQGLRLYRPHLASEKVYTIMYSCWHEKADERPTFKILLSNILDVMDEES
Description: Mino human mantle cell lymphoma cell line was purchased from ATCC and cultured under the following conditions: RPMI-1640+15% FBS+1% double antibody in a 37° C., 5% CO2 incubator. Cells were plated in a 6-well plate, with 5×10^5 cells/well. After plating, the compounds at different concentrations were added and cultured in an incubator at 37° C. under 5% CO2 for 48 hours. After culturing, the cells were collected, and RIPA lysis buffer (Beyotime, Cat. P0013B) was added. The cells were lysed on ice for 15 minutes, and centrifuged at 12000 rpm at 4° C. for 10 minutes. The protein sample of the supernatant was collected, and the protein was quantified by using the BCA kit (Beyotime, Cat. P0009), and then the protein was diluted to 0.25 mg/mL. The expressions of BTK (CST, Cat. 8547S) and the internal reference β-actin (CST, Cat. 3700S) were detected using a fully automated western blot quantitative analyzer (Proteinsimple) with a kit (Protein simple, Cat. SM-W004). The expression level of BTK relative to the internal reference was calculated using Compass software, and the DC50 value was calculated using Origin9.2 software according to formula (3). Specifically, the BTKadministration denoted the expression level of BTK in administration groups at different doses, and the BTKvehicle denoted the expression level of BTK in the vehicle control group. […]

[3] = target: T3, Aiolos (Homo sapiens, UniProt Q9UKT9); test: Detection of Aiolos degradation in Mino cells (automated western blot); format: cell-based; settings: 48 hours
T3 construct: endogenous in cells; host or cells: Mino human mantle cell lymphoma cells (ATCC)
T3 sequence (Q96SW2 whole entry partner): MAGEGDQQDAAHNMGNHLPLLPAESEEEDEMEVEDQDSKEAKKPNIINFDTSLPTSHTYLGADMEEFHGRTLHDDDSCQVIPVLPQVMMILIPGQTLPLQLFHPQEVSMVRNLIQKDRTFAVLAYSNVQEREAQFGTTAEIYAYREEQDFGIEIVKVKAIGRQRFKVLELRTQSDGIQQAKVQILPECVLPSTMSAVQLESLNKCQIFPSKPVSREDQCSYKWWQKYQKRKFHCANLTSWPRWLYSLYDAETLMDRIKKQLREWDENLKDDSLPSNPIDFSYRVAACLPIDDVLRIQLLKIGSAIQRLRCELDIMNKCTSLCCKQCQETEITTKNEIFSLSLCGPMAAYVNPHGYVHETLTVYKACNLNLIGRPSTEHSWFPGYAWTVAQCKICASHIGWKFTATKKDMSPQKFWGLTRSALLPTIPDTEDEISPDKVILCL
T3 sequence (Q16531 whole entry partner): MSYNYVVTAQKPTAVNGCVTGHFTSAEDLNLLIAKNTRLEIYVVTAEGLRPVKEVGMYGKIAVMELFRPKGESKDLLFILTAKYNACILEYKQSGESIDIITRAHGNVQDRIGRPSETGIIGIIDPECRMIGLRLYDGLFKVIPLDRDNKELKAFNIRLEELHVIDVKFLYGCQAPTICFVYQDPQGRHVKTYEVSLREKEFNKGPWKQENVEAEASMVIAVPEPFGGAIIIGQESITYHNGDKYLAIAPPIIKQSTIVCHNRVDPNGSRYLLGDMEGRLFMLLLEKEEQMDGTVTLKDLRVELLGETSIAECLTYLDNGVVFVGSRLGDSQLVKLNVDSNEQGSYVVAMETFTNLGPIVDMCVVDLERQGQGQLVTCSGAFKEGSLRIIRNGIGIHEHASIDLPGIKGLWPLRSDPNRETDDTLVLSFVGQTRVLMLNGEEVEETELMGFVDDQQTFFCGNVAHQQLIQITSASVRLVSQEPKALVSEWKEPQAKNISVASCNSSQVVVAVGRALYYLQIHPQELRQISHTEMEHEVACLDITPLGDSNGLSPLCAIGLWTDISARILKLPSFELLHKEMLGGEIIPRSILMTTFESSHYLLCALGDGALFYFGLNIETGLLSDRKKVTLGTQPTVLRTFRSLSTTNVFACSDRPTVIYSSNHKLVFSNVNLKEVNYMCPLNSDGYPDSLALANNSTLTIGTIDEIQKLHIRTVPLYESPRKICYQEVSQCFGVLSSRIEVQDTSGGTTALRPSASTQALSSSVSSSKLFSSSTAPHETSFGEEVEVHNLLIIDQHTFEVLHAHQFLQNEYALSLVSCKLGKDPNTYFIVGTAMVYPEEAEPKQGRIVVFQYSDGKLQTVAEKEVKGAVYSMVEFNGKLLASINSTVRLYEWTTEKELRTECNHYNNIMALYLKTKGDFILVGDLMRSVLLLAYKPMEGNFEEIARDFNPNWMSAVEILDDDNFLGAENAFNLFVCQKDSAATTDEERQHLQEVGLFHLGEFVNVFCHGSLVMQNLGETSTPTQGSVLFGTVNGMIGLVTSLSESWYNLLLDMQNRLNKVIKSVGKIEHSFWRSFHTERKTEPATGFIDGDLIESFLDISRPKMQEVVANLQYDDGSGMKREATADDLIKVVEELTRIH
T3 sequence (Q9UKT9 whole entry): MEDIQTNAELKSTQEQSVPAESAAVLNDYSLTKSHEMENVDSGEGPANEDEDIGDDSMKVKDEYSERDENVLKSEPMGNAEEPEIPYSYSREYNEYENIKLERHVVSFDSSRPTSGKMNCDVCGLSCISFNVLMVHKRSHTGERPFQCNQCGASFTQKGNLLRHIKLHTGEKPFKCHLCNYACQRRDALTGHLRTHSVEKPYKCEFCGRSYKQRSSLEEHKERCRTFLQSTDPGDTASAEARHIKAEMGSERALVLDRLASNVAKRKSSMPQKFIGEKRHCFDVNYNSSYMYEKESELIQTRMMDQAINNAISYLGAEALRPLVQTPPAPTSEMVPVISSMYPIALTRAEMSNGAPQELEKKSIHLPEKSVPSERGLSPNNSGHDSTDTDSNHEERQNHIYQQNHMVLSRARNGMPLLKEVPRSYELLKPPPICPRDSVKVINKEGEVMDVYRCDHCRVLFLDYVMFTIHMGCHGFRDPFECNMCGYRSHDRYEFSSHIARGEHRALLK
Description: Mino is a human mantle cell lymphoma cell line purchased from ATCC and cultured under the following conditions: RPMI-1640+15% FBS+1% double antibody in a 37° C., 5% CO2 incubator. Cells were plated in a 6-well plate, with 5×10^5 cells/well. After plating, the compounds at different concentrations were added and cultured in an incubator at 37° C. under 5% CO2 for 48 hours. After culturing, the cells were collected, and RIPA lysis buffer (Beyotime, Cat. P0013B) was added. The cells were lysed on ice for 15 minutes, and centrifuged at 12000 rpm at 4° C. for 10 minutes. The protein sample of the supernatant was collected, and the protein was quantified by using the BCA kit (Beyotime, Cat. P0009), and then the protein was diluted to 0.25 mg/mL. The expressions of Aiolos (CST, Cat. 15103S) and the internal reference GAPDH (CST, Cat. 5174S) were detected using a fully automated western blot quantitative analyzer (Proteinsimple). The expression level of Aiolos relative to the internal reference was calculated using Compass software, and the DC50 value was calculated using Origen9.2 software according to formula (5). Specifically, the Aiolosadministration denoted the expression level of Aiolos in administration groups at different doses, and the Aiolosvehicle denoted the expression level of Aiolos in the vehicle control group.
Aiolos %=Aiolosadministration/Aiolosvehicle×100% formula (5)

[4] = tested on: Mino cells; test: Inhibition of cell proliferation, Mino cells (Cell Viability Assay, 72 h); format: cell-based, human; settings: Homo sapiens, MINO, 72 h
How it was run: (§1)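 Cells in RPMI1640 + 10% FBS were seeded at 20000/well (SU-DHL-4) or 5000/well (Mino, SU-DHL-6) and exposed to compound for 72 h at 37 °C in triplicate, with a DMSO vehicle control. Viability was read by […]. IC50 was fitted, and Max inhi.% was taken at the highest concentration relative to vehicle.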

[5] = tested on: SU-DHL-6 cells; test: Inhibition of cell proliferation, SU-DHL-6 cells (Cell Viability Assay, 72 h); format: cell-based, human
How it was run: as §1

[6] = Pharmacokinetic experiment in rats; format: in vivo; settings: male, SD, rat, plasma, po, i.g. (20 mg/kg)
How it was run: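 Male SD rats (~200 g, 6–8 weeks), single intravenous or intragastric dose, fasted 12–14 h pre-dose, fed 4 h post-dose. Orbital blood into EDTA-K2 under isoflurane, plasma by centrifugation at 4 °C; concentrations by HPLC-MS/MS for PK parameters and bioavailability.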

[7] = tested on: SU-DHL-4 cells; test: Inhibition of cell proliferation, SU-DHL-4 cells (Cell Viability Assay, 72 h); format: cell-based, human
Description: SU-DHL-4, Mino, and SU-DHL-6 cells, in the culture medium of RPMI1640+10% FBS, were cultured in an incubator at 37° C. under 5% CO2. Cells were plated in a 96-well plate. Specifically, SU-DHL-4 cells were at 20000/well, Mino and SU-DHL-6 cells were at 5000/well, with 90 μL/well. 10 μL of the compounds at different concentrations were added to each well. There were 3 replicate wells for each concentration, and the last column, added with DMSO, was used as a vehicle control group. The cultures were continued for 72 hours at 37° C. under 5% CO2. After 72 hours, 100 μL of detection reagent (Cell Viability Assay, Promega, G7573) was added to each well, and the cultures were uniformly mixed for 2 minutes, and incubated at room temperature for 10 minutes. The […] signal value was measured with a microplate reader (PHERAstar FSX). The IC50 value of the compound on cell proliferation inhibition was calculated using origin9.2 software, and the inhibition rate at the highest concentration of the compound (Max inhi.%) was calculated according to formula (1).
Max inhi.%=(1−T72administration/T72vehicle)×100 Formula (1).

T1 sequence (P35991 whole entry): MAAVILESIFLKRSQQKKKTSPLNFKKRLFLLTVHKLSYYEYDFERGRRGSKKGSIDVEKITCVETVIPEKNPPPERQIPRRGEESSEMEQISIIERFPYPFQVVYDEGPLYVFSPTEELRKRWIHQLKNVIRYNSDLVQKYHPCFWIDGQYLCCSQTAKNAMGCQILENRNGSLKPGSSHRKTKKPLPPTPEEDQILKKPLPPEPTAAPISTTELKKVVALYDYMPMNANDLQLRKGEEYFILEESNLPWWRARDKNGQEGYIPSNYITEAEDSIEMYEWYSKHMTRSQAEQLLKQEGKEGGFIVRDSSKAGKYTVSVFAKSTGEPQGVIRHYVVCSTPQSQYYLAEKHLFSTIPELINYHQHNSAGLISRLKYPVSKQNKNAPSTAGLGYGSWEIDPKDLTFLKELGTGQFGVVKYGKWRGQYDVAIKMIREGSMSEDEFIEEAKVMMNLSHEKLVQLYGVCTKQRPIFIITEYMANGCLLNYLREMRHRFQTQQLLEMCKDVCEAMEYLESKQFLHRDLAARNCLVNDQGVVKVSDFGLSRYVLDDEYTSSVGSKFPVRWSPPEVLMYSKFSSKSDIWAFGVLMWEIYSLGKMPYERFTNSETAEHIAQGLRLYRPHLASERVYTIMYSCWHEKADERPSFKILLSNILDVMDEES

For Nc1ncnc2c1c(-c1ccc(Oc3ccccc3)cc1)nn2C1CCN(C2CN(CC3CN(c4ccc5c(c4)C(=O)N(C4CCC(=O)NC4=O)C5=O)C3)C2)CC1 (stereo not drawn) [Compound 85, 5-(3-((3-(4-(4-amino-3-(4-phenoxyphenyl)-1H-pyrazolo[3,4-d]pyrimidin-1-yl)piperidin-1-yl)azetidin-1-yl)methyl)azetidin-1-yl)-2-(2,6-dioxopiperidin-3-yl)isoindoline-1,3-dione], the ED50 [1] was 3.3 mg/kg, the DC50 [2] was 1.6 nM and the DC50 [3] was ≥ 1000 nM. The IC50 [4] was 32 nM, the IC50 [5] was 26 nM and the bioavailability ([6]; bioavailability) was 17.4 ± 5.6%. It also gave an AUC(0-t) ([6]; single dose) of 3030 ± 982 ng·h/mL, an IC50 [7] of 624 nM and an IC50 ([7]; listed as compound 85) of 10 to 1000 nM.

Source: patent US20230248833A1, “COMPOUND HAVING BTK KINASE DEGRADING ACTIVITY, AND PREPARATION METHOD AND PHARMACEUTICAL USE THEREFOR” (SICHUAN HAISCO PHARMACEUTICAL CO., LTD., priority 2020, published 2023)
